# Reference: paper PMC6825221, “In silico re-engineering of a neurotransmitter to activate KCNQ potassium channels in an isoform-specific manner” (Communications Biology, 2019)
# Values joined by “and” are separate entries in the source; they are usually repeats but may differ in a detail not shown here. Equal entries are not always repeated. “Also recorded” adds a separate entry of the source.
# Legend:
# [1] = target: KCNQ3* (Homo sapiens, UniProt O43525, A315T); assay: [3H]GABA binding and competition, oocytes expressing KCNQ3*; conditions: 100 µM
# Description: Oocytes were then washed four times in 16 °C ND96, transferred to individual wells in a 96 well plate and lysed in 0.2% SDS in ND96. Each oocyte lysate was transferred to a scintillation vial containing 5 ml Cytoscint scintillation cocktail fluid (MP Biomedicals, Santa Ana, CA). Vials were capped, shaken, and then allowed to sit at room temperature for at least 30 min before scintillation counting in a Beckmann Coulter LS6500 liquid scintillation counter.
# [2] = target: KCNQ2-R213A/KCNQ3-R242A (Homo sapiens, UniProt O43525+O43526, R213A/R242A); assay: TEVC of RA/RA mutant KCNQ2/3; type: cell-based; conditions: GABA up to 1 mM
# Description: We generated cRNA transcripts encoding human KCNQ1, KCNQ2, KCNQ3, KCNQ4, KCNQ5 or GLRA1 (NM_001146040) (GenScript, Piscataway, NJ, USA) by in vitro transcription using the T7 polymerase mMessage mMachine kit (Thermo Fisher Scientific), after vector linearization, from cDNA sub-cloned into plasmids incorporating Xenopus laevis β-globin 5′ and 3′ UTRs flanking the coding region to enhance translation and cRNA stability. We quantified cRNA by spectrophotometry. […] We injected defolliculated stage V and VI Xenopus laevis oocytes (Ecocyte Bioscience, Austin, TX and Xenoocyte, Dexter, MI) with KCNQ channel α subunit (5-20 ng) or GLRA1 (20 ng) cRNAs. We incubated the oocytes at 16 °C in Barth’s saline solution (Ecocyte Bioscience) containing penicillin and streptomycin, with daily washing, for 2–5 days prior to two-electrode voltage-clamp (TEVC) recording.
# For recording, oocytes were placed in a small-volume oocyte bath (Warner) and viewed them with a dissection microscope. […] Currents were recorded in response to voltage pulses between −120 or −80 mV and + 40 mV at 20 mV intervals from a holding potential of −80 mV, to yield current-voltage relationships, current magnitude, and for quantifying activation rate. We analyzed data using Clampfit (Molecular Devices) and Graphpad Prism software (GraphPad, San Diego, CA, USA); values are stated as mean ± SEM. […]
# [3] = target: T1, GLRA1 (Homo sapiens, UniProt P23415); assay: TEVC of glycine receptor GLRA1 expressed in Xenopus oocytes; type: cell-based
# T1 sequence (P23415 29-457): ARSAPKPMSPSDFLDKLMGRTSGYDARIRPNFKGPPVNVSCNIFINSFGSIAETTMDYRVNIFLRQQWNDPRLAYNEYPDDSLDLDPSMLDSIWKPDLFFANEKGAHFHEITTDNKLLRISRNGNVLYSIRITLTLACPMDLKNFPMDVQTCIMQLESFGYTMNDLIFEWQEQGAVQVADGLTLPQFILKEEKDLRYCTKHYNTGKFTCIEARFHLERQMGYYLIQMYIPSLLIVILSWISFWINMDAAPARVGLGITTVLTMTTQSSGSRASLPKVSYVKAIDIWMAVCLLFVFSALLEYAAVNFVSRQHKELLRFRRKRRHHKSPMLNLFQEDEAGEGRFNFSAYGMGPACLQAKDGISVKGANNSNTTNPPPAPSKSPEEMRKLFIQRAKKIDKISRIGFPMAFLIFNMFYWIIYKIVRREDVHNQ
# Description: We generated cRNA transcripts encoding human KCNQ1, KCNQ2, KCNQ3, KCNQ4, KCNQ5 or GLRA1 (NM_001146040) (GenScript, Piscataway, NJ, USA) by in vitro transcription using the T7 polymerase mMessage mMachine kit (Thermo Fisher Scientific), after vector linearization, from cDNA sub-cloned into plasmids incorporating Xenopus laevis β-globin 5′ and 3′ UTRs flanking the coding region to enhance translation and cRNA stability. We quantified cRNA by spectrophotometry. We generated mutant KCNQ2 and KCNQ3 cDNAs by site-directed mutagenesis using a QuikChange kit (Stratagene, San Diego, CA) and prepared the corresponding cRNAs as above. We injected defolliculated stage V and VI Xenopus laevis oocytes (Ecocyte Bioscience, Austin, TX and Xenoocyte, Dexter, MI) with KCNQ channel α subunit (5-20 ng) or GLRA1 (20 ng) cRNAs. We incubated the oocytes at 16 °C in Barth’s saline solution (Ecocyte Bioscience) containing penicillin and streptomycin, with daily washing, for 2–5 days prior to two-electrode voltage-clamp (TEVC) recording.
# We performed TEVC at room temperature using an OC-725C amplifier (Warner Instruments, Hamden, CT) and pClamp10 software (Molecular Devices, Sunnyvale, CA) 2–5 days after cRNA injection as described in the section above. For recording, oocytes were placed in a small-volume oocyte bath (Warner) and viewed them with a dissection microscope. Chemicals were sourced from Sigma, Matrix Scientific and Santa Cruz. […] All stock solutions were diluted in bath solution on the day of experiments. KCNQ2/3 channel activation was screened for using either 30 µM or 100 µM concentrations of each of the six compounds, then dose responses were conducted as appropriate. Bath solution was (in mM): 96 NaCl, 4 KCl, 1 MgCl2, 1 CaCl2, 10 HEPES (pH 7.6). Compounds were introduced into the oocyte recording bath by gravity perfusion at a constant flow of 1 ml per minute for 3 min prior to recording. Pipettes were of 1–2 MΩ resistance when filled with 3 M KCl. Currents were recorded in response to voltage pulses between −120 or −80 mV and + 40 mV at 20 mV intervals from a holding potential of −80 mV, to yield current-voltage relationships, current magnitude, and for quantifying activation rate. We analyzed data using Clampfit (Molecular Devices) and Graphpad Prism software (GraphPad, San Diego, CA, USA); values are stated as mean ± SEM. We plotted raw or normalized tail currents versus prepulse voltage and fitted with a single Boltzmann function:1 g=(A1−A2)/1+exp(V12−V)∕VS+A2, where g is the normalized tail conductance, A1 is the initial value at −∞, A2 is the final value at +∞, V1/2 is the half-maximal voltage of activation and Vs the slope factor. Activation, deactivation, wash-in and washout kinetics were fitted with single exponential functions to yield a τ value.
# [4] = target: KCNQ2/KCNQ3-W265L (Homo sapiens, UniProt O43525+O43526, W265L); assay: TEVC of KCNQ2/3 with KCNQ3-W265L mutation; type: cell-based
# Description: We generated cRNA transcripts encoding human KCNQ1, KCNQ2, KCNQ3, KCNQ4, KCNQ5 or GLRA1 (NM_001146040) (GenScript, Piscataway, NJ, USA) by in vitro transcription using the T7 polymerase mMessage mMachine kit (Thermo Fisher Scientific), after vector linearization, from cDNA sub-cloned into plasmids incorporating Xenopus laevis β-globin 5′ and 3′ UTRs flanking the coding region to enhance translation and cRNA stability. We quantified cRNA by spectrophotometry. We generated mutant KCNQ2 and KCNQ3 cDNAs by site-directed mutagenesis using a QuikChange kit (Stratagene, San Diego, CA) and prepared the corresponding cRNAs as above. […]
# We performed TEVC at room temperature using an OC-725C amplifier (Warner Instruments, Hamden, CT) and pClamp10 software (Molecular Devices, Sunnyvale, CA) 2–5 days after cRNA injection as described in the section above. […] Currents were recorded in response to voltage pulses between −120 or −80 mV and + 40 mV at 20 mV intervals from a holding potential of −80 mV, to yield current-voltage relationships, current magnitude, and for quantifying activation rate. We analyzed data using Clampfit (Molecular Devices) and Graphpad Prism software (GraphPad, San Diego, CA, USA); values are stated as mean ± SEM. […]
smiles,measurement,setting,value
CS(=O)(=O)N(CC(=O)O)c1cccc(F)c1 [3FMSG],competition of GABA binding to KCNQ3*,[1],able to compete out GABA binding
same,activation / sensitivity of RA/RA mutant KCNQ2/3,[2],larger reduction in sensitivity
same,inhibition of glycine-activated GLRA1,"[3]; 100 µM, 1 mM glycine",35-40% and ~ 40%
same,activation of GLRA1,"[3]; 1 mM, compound alone",Neither compound activated GLRA1
same,inhibition of the activation of GLRA1 by 1 mM glycine,[3]; each at 100 µM,partially inhibited
same,effect of the KCNQ3-W265L mutation within KCNQ2/3,[4],dependent on KCNQ3-W265; also recorded: eliminated effects of 3FMSG
